{"source": "patent US6596757B1", "about": "“Cytotoxic agents comprising polyethylene glycol-containing taxanes and their therapeutic use” (Immunogen Inc., priority 2002, dated 2003)", "key": {"MCF-7 cells": {"system": "MCF-7 cells", "assay": "In vitro cytotoxicity, MCF-7 cells, 72 hour exposure, surviving fraction by plating efficiency", "format": "cell-based", "conditions": "MCF-7 (human breast tumor) cells, read-out: IC50 value towards MCF-7 cells", "experimental": "(§1) Disulfide-containing and thiol-containing PEGylated taxane drugs of the invention can be evaluated for their ability to suppress proliferation of various unwanted cell lines in vitro. For example, cell lines such as the human lung carcinoma line A549, the human breast tumor line MCF-7, and the Burkitt's lymphoma line Namalwa can easily be used for the assessment of cytotoxicity of these compounds. Cells to be evaluated can be exposed to the compounds for 72 hours and the surviving fractions of cells measured in direct assays by known methods. IC50 values can then be calculated from the results of the assays.\nThe sulfide, disulfide, and sulfhydryl containing PEGylated taxane drugs of the invention can be evaluated for their ability to suppress proliferation of various human tumor cell lines in vitro. Two adherent cell lines A549(human lung carcinoma) and MCF-7 (human breast tumor) and the non-adherent cell line, Namalwa (Burkitt's lymphoma) are used for the assessment of cytotoxicity of these compounds. Cells are exposed to the compounds for 72 hours and the surviving fractions of cells are measured in direct assays."}, "A-431 cells": {"system": "A-431 cells", "assay": "In vitro cytotoxicity, A-431 cells", "format": "cell-based", "conditions": "read-out: IC50 towards A-431 cells", "experimental": "as §1\nCytotoxicity of the PEGylated taxanes and their antibody conjugates to non-adherent cell lines such as Namalwa and HL-60 can be measured by back-extrapolation of cell proliferation curves as described in Goldmacher et al, 135 J. Immunol. 3648-3651 (1985). Cytotoxicity of these compounds to adherent cell lines such as SKBR3 and A431 can be determined by clonogenic assays as described in Goldmacher et al, 102 J. Cell Biol. 1312-1319 (1986)."}}}
{"smiles": "COc1ccc(OC)c(C(=O)OC2C3C4(OC(C)=O)COC4CC(O)C3(C)C(=O)C(OC(=O)CCOCCOCCOCCOCCSSC)C3=C(C)C(OC(=O)C(O)C(C=C(C)C)NC(=O)OC(C)(C)C)CC2(O)C3(C)C)c1", "note": "(stereo not drawn) [taxoid 17, 3′-Dephenyl-3′-(isobutenyl)-2-debenzoyl-2-(2,5-dimethoxybenzoyl)-10-(15-methyldithio-4,7,10,13-tetraoxapentadecanoyl)-docetaxel]", "values": [{"measurement": "IC50", "setting": "MCF-7 cells", "value": 63, "unit": "pM"}, {"measurement": "IC50", "setting": "A-431 cells", "value": 330, "unit": "pM"}]}
{"smiles": "COc1ccc(OC)c(C(=O)OC2C3C4(OC(C)=O)COC4CC(OC(=O)CCOCCOCCOCCOCCSSC)C3(C)C(=O)C(O)C3=C(C)C(OC(=O)C(O)C(C=C(C)C)NC(=O)OC(C)(C)C)CC2(O)C3(C)C)c1", "note": "(stereo not drawn) [taxoid 20, 3′-Dephenyl-3′-(isobutenyl)-2-debenzoyl-2-(2,5-dimethoxybenzoyl)-7-(15-methyldithio-4,7,10,13-tetraoxapentadecanoyl)-docetaxel]", "values": [{"measurement": "IC50", "setting": "MCF-7 cells", "value": 320, "unit": "pM"}]}
